16 compounds from patent US9834571B2, “Compounds for inhibiting cell proliferation in EGFR-driven cancers” (ARIAD Pharmaceuticals, Inc., priority 2012, dated 2017) can be followed below.

Structures are written as SMILES. Like-named read-outs stand apart in the source and are kept apart here.

The target in experiment [1] is EGFR L858R (Homo sapiens, UniProt P00533, L858R). Briefly: Kinase inhibitory activity against EGFR bearing the L858R mutation. The class given is biochemical. The settings on record: 10 μM ATP, read-out: IC50 for kinase inhibition, EGFR L858R. The method, then: (§1) Kinase inhibitory activity of the compounds was measured against human EGFR (native sequence) and against EGFR bearing the L858R mution and the L858R/T790M double mutation (EGFR, L858R, and L858R/T790M, respectively in Table 1). Additional assays can be conducted with EGFR deletion mutants such as delE746-A750 with or without the additional T790M mutation. Assay conditions included 10 pt curves with 3 μM top concentration (singlicates) and 10 μM ATP.

Experiment [2] deals with human EGFR (native sequence) (Homo sapiens, UniProt P00533). Nature of the experiment: Kinase inhibitory activity against human EGFR (native sequence). The format is biochemical. The conditions noted are these: 10 μM ATP, read-out: IC50 for kinase inhibition, EGFR. How it is done: as §1
Experiment [3] concerns BaF3 cells expressing wildtype EGFR. Briefly: Antiproliferative activity (MTT) against control BaF3 cells expressing wildtype EGFR. The format is cell-based. How it is done: (§2) We also assessed the antiproliferative activity of compounds of Formula (I) against BaF3 cells expressing the target EGFR mutations or control (i.e., cell lines expressing wildtype EGFR). Assays were conducted using MTT.

Experiment [4] has as its target EGFR L858R/T790M (Homo sapiens, UniProt P00533, L858R/T790M). Nature of the experiment: Kinase inhibitory activity against EGFR bearing the L858R/T790M double mutation. The class given is biochemical. The conditions noted are these: 10 μM ATP, read-out: IC50 for kinase inhibition, EGFR L858R T790M. How it is done:
as §1

Experiment [5] addresses T1, BaF3 cells expressing the target EGFR mutations (Homo sapiens, UniProt P00533, T790M/L858R, cells depend on it).
T1 construct: IC50, BAF3 EGFR L858R-T790M PURO POOL; other: BAF3 EGFR L858R-T790M PURO POOL cells, MTT; IC50, BAF3 EGFR L858R-T790M PURO POOL; other: BAF3 EGFR L858R-T790M PURO POOL cells; MTT
Nature of the experiment: Antiproliferative activity (MTT) against BaF3 cells expressing the target EGFR mutations. The conditions noted are these: BAF3 EGFR L858R-T790M PURO POOL cells, read-out: IC50, BAF3 EGFR L858R-T790M PURO POOL. The format is cell-based. The method, then: as §2

Experiment [6] has as its target T2, BaF3 cells expressing the target EGFR mutations (Homo sapiens, UniProt P00533, T790M, cells depend on it, form not given).
T2 construct: IC50, BAF3 EGFR DEL T790M PURO POOL; other: BAF3 EGFR DEL T790M PURO POOL cells, MTT; other: BAF3 EGFR DEL T790M PURO POOL cells; MTT
The description is as above. The format is cell-based. The settings on record: BAF3 EGFR DEL T790M PURO POOL cells, read-out: IC50, BAF3 EGFR DEL T790M PURO POOL. The method, then:
as §2

Setting [7] is: 10 pt curves, 3 μM top concentration.
Where [8] appears, read: Mus musculus, BAF3 parental cells.
The mark [9] stands for this setting: Mus musculus, BAF3 PARENTAL cells (control).
Setting [10] is: EGFR L858R/T790M double mutation.

T2 sequence (P00533 with tags, fused parts or gaps DEL746-750/T790M, form open): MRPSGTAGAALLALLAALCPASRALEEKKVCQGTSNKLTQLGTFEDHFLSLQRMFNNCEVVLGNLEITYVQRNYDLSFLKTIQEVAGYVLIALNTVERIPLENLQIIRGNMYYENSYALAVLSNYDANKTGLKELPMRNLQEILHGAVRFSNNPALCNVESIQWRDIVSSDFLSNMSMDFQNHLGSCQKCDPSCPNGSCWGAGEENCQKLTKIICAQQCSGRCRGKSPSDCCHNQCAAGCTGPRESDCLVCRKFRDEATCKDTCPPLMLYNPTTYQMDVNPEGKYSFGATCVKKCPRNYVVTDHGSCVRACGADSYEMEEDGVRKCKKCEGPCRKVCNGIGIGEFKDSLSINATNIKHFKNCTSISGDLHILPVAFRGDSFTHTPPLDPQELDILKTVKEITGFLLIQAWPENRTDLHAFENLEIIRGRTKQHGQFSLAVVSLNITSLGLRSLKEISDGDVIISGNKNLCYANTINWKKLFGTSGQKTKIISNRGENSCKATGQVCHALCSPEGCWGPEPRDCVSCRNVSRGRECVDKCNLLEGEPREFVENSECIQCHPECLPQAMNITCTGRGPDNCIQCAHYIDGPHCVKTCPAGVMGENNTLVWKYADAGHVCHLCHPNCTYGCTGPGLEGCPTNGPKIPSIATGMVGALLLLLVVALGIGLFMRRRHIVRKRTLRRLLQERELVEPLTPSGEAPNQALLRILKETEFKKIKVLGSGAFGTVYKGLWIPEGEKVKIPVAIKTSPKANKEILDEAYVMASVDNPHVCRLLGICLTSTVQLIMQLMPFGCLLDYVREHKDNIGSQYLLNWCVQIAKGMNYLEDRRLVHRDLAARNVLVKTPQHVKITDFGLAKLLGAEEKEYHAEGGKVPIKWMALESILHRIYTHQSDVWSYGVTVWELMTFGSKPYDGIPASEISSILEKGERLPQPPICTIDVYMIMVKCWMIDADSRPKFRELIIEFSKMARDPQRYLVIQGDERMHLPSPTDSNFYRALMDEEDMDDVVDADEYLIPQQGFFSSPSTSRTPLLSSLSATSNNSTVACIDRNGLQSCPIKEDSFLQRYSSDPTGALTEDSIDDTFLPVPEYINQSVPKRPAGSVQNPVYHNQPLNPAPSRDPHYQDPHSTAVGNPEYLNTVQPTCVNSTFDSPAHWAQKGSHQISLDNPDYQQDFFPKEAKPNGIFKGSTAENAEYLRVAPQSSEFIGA
Chain of EGFR L858R/T790M (P00533 25-1210 T790M/L858R): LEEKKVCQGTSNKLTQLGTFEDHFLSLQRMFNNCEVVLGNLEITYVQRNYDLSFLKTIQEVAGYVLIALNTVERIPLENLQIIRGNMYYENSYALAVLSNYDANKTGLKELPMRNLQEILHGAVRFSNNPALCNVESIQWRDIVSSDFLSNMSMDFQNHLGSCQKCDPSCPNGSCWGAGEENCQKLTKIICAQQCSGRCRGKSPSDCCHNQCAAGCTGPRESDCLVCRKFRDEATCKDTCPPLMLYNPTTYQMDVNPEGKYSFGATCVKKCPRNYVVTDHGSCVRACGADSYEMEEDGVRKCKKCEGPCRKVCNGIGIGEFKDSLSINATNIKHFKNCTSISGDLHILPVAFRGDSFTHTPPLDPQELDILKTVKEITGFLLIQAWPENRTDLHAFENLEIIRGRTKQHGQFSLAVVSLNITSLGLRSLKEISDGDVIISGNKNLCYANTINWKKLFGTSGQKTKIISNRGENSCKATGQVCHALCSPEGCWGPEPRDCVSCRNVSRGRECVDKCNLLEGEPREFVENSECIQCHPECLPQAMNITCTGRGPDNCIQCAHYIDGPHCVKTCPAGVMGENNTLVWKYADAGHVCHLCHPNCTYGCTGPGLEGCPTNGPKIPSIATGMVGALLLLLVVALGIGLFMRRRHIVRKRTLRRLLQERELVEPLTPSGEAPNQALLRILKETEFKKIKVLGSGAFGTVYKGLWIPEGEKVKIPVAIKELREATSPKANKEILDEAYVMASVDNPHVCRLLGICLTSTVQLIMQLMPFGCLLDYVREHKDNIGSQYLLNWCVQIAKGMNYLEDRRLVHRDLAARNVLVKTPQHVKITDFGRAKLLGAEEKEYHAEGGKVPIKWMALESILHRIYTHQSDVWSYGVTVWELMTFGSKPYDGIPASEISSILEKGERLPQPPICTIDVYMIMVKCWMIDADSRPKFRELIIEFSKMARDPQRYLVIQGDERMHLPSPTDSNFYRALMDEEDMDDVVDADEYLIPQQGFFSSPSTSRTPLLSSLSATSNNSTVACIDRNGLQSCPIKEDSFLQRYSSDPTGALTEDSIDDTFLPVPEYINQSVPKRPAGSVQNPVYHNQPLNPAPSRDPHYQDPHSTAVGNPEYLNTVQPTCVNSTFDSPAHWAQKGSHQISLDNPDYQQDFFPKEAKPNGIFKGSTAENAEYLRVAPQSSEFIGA
Chain of EGFR L858R (P00533 25-1210 L858R): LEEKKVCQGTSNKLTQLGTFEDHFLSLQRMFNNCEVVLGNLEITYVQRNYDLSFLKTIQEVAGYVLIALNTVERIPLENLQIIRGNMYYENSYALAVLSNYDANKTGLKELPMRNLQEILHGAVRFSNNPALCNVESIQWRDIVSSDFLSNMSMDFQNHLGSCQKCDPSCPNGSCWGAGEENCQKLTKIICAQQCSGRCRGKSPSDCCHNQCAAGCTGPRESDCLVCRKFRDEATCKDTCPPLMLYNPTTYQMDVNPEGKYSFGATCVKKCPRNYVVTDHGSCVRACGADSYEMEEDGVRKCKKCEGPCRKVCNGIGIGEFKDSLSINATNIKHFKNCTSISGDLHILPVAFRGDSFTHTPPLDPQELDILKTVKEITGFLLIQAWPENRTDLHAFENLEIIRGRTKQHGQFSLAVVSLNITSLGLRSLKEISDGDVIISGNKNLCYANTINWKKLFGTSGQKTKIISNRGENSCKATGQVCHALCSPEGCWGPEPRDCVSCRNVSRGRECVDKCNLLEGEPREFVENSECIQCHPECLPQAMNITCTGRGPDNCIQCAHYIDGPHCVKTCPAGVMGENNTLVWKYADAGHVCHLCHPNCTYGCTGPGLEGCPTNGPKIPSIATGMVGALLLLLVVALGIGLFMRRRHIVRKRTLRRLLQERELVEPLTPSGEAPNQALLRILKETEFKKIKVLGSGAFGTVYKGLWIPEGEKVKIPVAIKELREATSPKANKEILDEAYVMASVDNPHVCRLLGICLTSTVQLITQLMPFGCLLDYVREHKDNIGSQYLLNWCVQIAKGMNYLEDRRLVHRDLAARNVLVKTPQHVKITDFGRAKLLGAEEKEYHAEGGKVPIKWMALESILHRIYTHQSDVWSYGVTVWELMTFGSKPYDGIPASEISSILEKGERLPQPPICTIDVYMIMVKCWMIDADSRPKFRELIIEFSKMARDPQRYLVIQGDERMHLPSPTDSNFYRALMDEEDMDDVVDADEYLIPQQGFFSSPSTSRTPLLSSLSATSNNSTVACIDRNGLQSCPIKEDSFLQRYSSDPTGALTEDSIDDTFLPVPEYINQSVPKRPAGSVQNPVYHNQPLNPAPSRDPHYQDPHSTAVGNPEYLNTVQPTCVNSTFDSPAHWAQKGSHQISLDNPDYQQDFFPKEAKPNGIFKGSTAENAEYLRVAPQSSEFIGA
Chain of human EGFR (native sequence) (P00533 25-1210): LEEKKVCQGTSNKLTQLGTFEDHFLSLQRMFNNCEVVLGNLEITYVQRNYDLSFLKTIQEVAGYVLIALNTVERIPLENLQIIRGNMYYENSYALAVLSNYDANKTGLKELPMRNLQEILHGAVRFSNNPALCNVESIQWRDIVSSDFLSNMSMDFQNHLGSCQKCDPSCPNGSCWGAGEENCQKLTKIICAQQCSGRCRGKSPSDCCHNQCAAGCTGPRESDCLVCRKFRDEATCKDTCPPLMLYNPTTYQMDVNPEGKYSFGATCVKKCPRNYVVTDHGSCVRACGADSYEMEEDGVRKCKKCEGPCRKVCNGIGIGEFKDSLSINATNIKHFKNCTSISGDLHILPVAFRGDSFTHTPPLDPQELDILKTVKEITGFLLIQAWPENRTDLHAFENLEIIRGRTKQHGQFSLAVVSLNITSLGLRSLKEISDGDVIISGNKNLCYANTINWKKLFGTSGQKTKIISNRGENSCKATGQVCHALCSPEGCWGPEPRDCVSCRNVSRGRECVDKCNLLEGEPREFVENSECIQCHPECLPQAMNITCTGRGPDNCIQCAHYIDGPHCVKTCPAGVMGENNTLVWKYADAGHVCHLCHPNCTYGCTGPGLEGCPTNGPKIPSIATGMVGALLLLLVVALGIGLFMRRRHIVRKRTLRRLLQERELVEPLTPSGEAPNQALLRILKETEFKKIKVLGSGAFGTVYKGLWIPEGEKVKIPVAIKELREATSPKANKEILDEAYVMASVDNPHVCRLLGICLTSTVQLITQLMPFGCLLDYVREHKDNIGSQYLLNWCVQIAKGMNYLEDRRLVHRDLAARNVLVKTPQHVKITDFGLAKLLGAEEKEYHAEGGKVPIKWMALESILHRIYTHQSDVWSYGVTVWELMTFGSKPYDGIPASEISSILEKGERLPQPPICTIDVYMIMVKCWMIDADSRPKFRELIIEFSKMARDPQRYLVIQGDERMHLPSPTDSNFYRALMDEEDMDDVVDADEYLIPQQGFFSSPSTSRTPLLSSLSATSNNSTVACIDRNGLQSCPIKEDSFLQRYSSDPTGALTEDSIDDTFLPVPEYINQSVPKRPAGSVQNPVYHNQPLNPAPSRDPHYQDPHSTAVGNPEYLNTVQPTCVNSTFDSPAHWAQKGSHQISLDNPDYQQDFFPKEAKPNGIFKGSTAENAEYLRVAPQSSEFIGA

Usually IC50 stands for the midpoint of a concentration-inhibition curve. With `C=C(C)C(=O)Nc1cc(Nc2ncc(Cl)c(Nc3ccccc3P(C)(C)=O)n2)c(OC)cc1N1CC[C@@H](N(C)C)C1` (racemic) [Example 113, rac-(R)-N-(5-((5-chloro-4-((2-(dimethylphosphoryl)phenyl)amino)pyrimidin-2-yl)amino)-2-(3-(dimethylamino)pyrrolidin-1-yl)-4-methoxyphenyl)methacrylamide], the IC50 in experiment [1] (setting [7]) was under 50 nM; in experiment [2] (setting [7]) it was 101 to 250 nM; in experiment [3] (setting [8]), at least 250 nM; in experiment [4] (setting [7]), under 50 nM. The GI50 in experiment [5] and in experiment [6] was under 50 nM in each case.
As for `C=CC(=O)Nc1cc(Nc2ncc(Cl)c(Nc3ccccc3P(C)(C)=O)n2)c(OC)cc1O[C@@H]1CCCN(C)C1` (single isomer, unassigned) [Example 14], the IC50 was under 50 nM in experiment [1] (EGFR L858R), under 50 nM in experiment [2] (human EGFR native sequence), at least 250 nM in experiment [3] (setting [9]) and under 50 nM in experiment [4] (setting [10]). In addition, the GI50 in experiment [5] and in experiment [6] was under 50 nM each time.
`C=CC(=O)Nc1cc(Nc2ncc(Cl)c(Nc3ccccc3P(C)(C)=O)n2)c(OC)cc1O[C@H]1CCCN(C)C1` (single isomer, unassigned) [Example 16]: the IC50 in experiment [1] (EGFR L858R) is under 50 nM; in experiment [2] (human EGFR native sequence), under 50 nM; in experiment [3] (setting [9]) it was at least 250 nM; in experiment [4] (setting [10]), under 50 nM. For the same compound, the GI50 in experiment [5] and in experiment [6] was under 50 nM throughout.
In the case of `C=CC(=O)Nc1cc(Nc2ncc(Cl)c(Nc3ccccc3P(C)(C)=O)n2)c(OC)cc1N1CC[C@@H](N(C)C)C1` (stereo in doubt) [Example 26, rac-(R)-N-(5-((5-chloro-4-((2-(dimethylphosphoryl)phenyl)amino)pyrimidin-2-yl)amino)-2-(3-(dimethylamino)pyrrolidin-1-yl)-4-methoxyphenyl)acrylamide], the IC50 is under 50 nM in experiment [1] (EGFR L858R), under 50 nM in experiment [2] (human EGFR native sequence), at least 250 nM in experiment [3] (setting [9]) and under 50 nM in experiment [4] (setting [10]). Besides, the GI50 in experiment [5] and in experiment [6] was under 50 nM each time.
Take `C=CC(=O)Nc1cc(Nc2ncc(Cl)c(Nc3ccccc3P(C)(C)=O)n2)c(OC)cc1N1CC[C@H](N(C)C)C1` (stereo in doubt) [Example 29, rac-(R)-N-(5-((5-chloro-4-((2-(dimethylphosphoryl)phenyl)amino)pyrimidin-2-yl)amino)-2-(3-(dimethylamino)pyrrolidin-1-yl)-4-methoxyphenyl)acrylamide]: the half-inhibitory concentration (IC50) in experiment [1] (EGFR L858R) is under 50 nM; in experiment [2] (human EGFR native sequence), under 50 nM; in experiment [3] (setting [9]), at least 250 nM; in experiment [4] (setting [10]) it was under 50 nM. Further, the GI50 in experiment [5] and in experiment [6] was under 50 nM throughout.
Regarding `C=CC(=O)Nc1cc(Nc2ncc(Cl)c(Nc3ccccc3P(C)(C)=O)n2)c(OC)cc1OCCN1CCCC1` [Example 1, N-(5-((5-chloro-4-((2-(dimethylphosphoryl)phenyl)amino)pyrimidin-2-yl)amino)-4-methoxy-2-(2-(pyrrolidin-1-yl)ethoxy)phenyl)acrylamide], the IC50 in experiment [1] (EGFR L858R) is under 50 nM; in experiment [2] (human EGFR native sequence), under 50 nM; in experiment [3] (setting [9]), at least 250 nM; in experiment [4] (setting [10]) it was under 50 nM. The GI50 in experiment [5] and in experiment [6] was under 50 nM in each case.
As for `C=CC(=O)Nc1cc(Nc2ncc(Cl)c(Nc3ccccc3P(C)(C)=O)n2)c(OC)cc1OCCN1CCN(C)CC1` [Example 2, N-(5-((5-chloro-4-((2-(dimethylphosphoryl)phenyl)amino)pyrimidin-2-yl)amino)-4-methoxy-2-(2-(4-methylpiperazin-1-yl)ethoxy)phenyl)acrylamide], the IC50 in experiment [1] (EGFR L858R) was under 50 nM; in experiment [2] (human EGFR native sequence), 101 to 250 nM; in experiment [3] (setting [9]), at least 250 nM; in experiment [4] (setting [10]) it was under 50 nM. In addition, the GI50 in experiment [6] is at least 250 nM.
In the case of `C=CC(=O)Nc1cc(Nc2ncc(Cl)c(Nc3ccccc3P(C)(C)=O)n2)c(OC)cc1OC1CN(C)C1` [Example 17, N-(5-((5-chloro-4-((2-(dimethylphosphoryl)phenyl)amino)pyrimidin-2-yl)amino)-4-methoxy-2-((1-methylazetidin-3-yl)oxy)phenyl)acrylamide], the IC50 in experiment [3] (setting [9]) was at least 250 nM. Moreover, the values for the GI50 in experiment [5] and in experiment [6] were 101 to 250 nM and 50 to 100 nM, respectively.
As for `C=CC(=O)Nc1cc(Nc2ncc(Cl)c(Nc3ccccc3P(C)(C)=O)n2)c(OC)cc1OCC1CCCN1C` (stereo not shown) [Example 18, N-(5-((5-chloro-4-((2-(dimethylphosphoryl)phenyl)amino)pyrimidin-2-yl)amino)-4-methoxy-2-((1-methylpyrrolidin-2-yl)methoxy)phenyl)acrylamide], the IC50 in experiment [3] (setting [9]) was at least 250 nM. The GI50 in experiment [5] and in experiment [6] was under 50 nM each time.
Consider `C=CC(=O)Nc1ccc(F)c(Nc2ncc(Cl)c(Nc3ccccc3P(C)(C)=O)n2)c1` [Example 54, N-(3-((5-chloro-4-((2-(dimethylphosphoryl)phenyl)amino)pyrimidin-2-yl)amino)-4-fluorophenyl)acrylamide], for which the IC50 in experiment [3] (setting [9]) was at least 250 nM. The GI50 in experiment [5] and in experiment [6] was under 50 nM each time.
In the case of `C=CC(=O)Nc1cc(Nc2ncc(Cl)c(Nc3ccccc3P(C)(C)=O)n2)c(OC)cc1OCC(CO)N(C)C` (stereo not shown) [Example 66, N-(5-((5-chloro-4-((2-(dimethylphosphoryl)phenyl)amino)pyrimidin-2-yl)amino)-2-(2-(dimethylamino)-3-hydroxypropoxy)-4-methoxyphenyl)acrylamide], the IC50 in experiment [3] (setting [9]) is at least 250 nM. The GI50 was at least 250 nM in experiment [5] and 101 to 250 nM in experiment [6].
Regarding `C=CC(=O)N1CCc2cc(OC)c(Nc3ncc(Cl)c(Nc4ccccc4P(C)(C)=O)n3)cc21` [Example 127, 1-(6-((5-chloro-4-((2-(dimethylphosphoryl)phenyl)amino)pyrimidin-2-yl)amino)-5-methoxyindolin-1-yl)prop-2-en-1-one], the IC50 in experiment [3] (setting [8]) was at least 250 nM. Besides, the GI50 was at least 250 nM in experiment [5] and 101 to 250 nM in experiment [6].
On to `C=CC(=O)Nc1cc(Nc2ncc(Cl)c(Nc3ccccc3P(C)(C)=O)n2)c(C)cc1OC(COC)CN(C)C` (stereo not shown) [Example 144, N-(5-((5-chloro-4-((2-(dimethylphosphoryl)phenyl)amino)pyrimidin-2-yl)amino)-2-((1-(dimethylamino)-3-methoxypropan-2-yl)oxy)-4-methylphenyl)acrylamide], for which the IC50 in experiment [2] (setting [7]) was under 50 nM; in experiment [3] (BAF3 parental cells), at least 250 nM. For the same compound, in experiment [6], the GI50 is under 50 nM.
For `C=CC(=O)Nc1cc(Nc2ncc(Cl)c(Nc3ccccc3P(C)(C)=O)n2)c(Cl)cc1OC(COC)CN(C)C` (stereo not shown) [Example 146, N-(4-chloro-5-((5-chloro-4-((2-(dimethylphosphoryl)phenyl)amino)pyrimidin-2-yl)amino)-2-((1-(dimethylamino)-3-methoxypropan-2-yl)oxy)phenyl)acrylamide], the IC50 in experiment [2] (setting [7]) is under 50 nM; in experiment [3] (BAF3 parental cells) it was at least 250 nM. The GI50 in experiment [6] is under 50 nM.
As to `C=CC(=O)Nc1cc(Cc2ncc(Cl)c(Nc3ccccc3P(C)(C)=O)n2)c(OC)cc1C#CCN1CCC(C)CC1` [Example 176, N-(5-((5-chloro-4-((2-(dimethylphosphoryl)phenyl)amino)pyrimidin-2-yl)methyl)-4-methoxy-2-(3-(4-methylpiperidin-1-yl)prop-1-yn-1-yl)phenyl)acrylamide], the IC50 in experiment [1] (setting [7]) was under 50 nM; in experiment [2] (setting [7]) it was under 50 nM; in experiment [3] (setting [8]) it was at least 250 nM; in experiment [4] (setting [7]) it was under 50 nM.
On to `C=CC(=O)Nc1cc(Cc2ncc(Cl)c(Nc3ccccc3P(C)(C)=O)n2)c(OC)cc1C#CCN(C)C(C)(C)C` [Example 177, N-(2-(3-(tert-butyl(methyl)amino)prop-1-yn-1-yl)-5-((5-chloro-4-((2-(dimethylphosphoryl)phenyl)amino)pyrimidin-2-yl)methyl)-4-methoxyphenyl)acrylamide], for which the IC50 is under 50 nM in experiment [1] (setting [7]), under 50 nM in experiment [2] (setting [7]), at least 250 nM in experiment [3] (setting [8]) and under 50 nM in experiment [4] (setting [7]).
